Test results reported in patent publication US8192962B2, “Processes for detecting toxic substances” (Daikin Industries, Ltd., priority 2001, dated 2012).

System: Metabolism protein genes
Assay: DNA chip mRNA expression in yeast, metabolism protein genes (Table 7)
Type: cell-based, Saccharomyces cerevisiae S288C
How it was run: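 Measured as treated-to-untreated fluorescence ratio on a full-genome yeast DNA chip. Cells (S288C, YPD, 25° C.) were exposed in log phase for two hours to one chemical, dosed to curb growth without killing.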

Structure (SMILES): C=CC=O [(14), acrolein]
- The level of expressed mRNA in the presence of chemical substance/The level of expressed mRNA in the absence of chemical substance (yeast gene YAL012W): 0.9
- The level of expressed mRNA in the presence of chemical substance/The level of expressed mRNA in the absence of chemical substance (yeast gene YAL038W): 0.5
- level of expressed mRNA in the presence/in the absence of chemical substance (yeast gene YBR003W): 0.8
- level of expressed mRNA in the presence/in the absence of chemical substance (yeast gene YBR011C): 0.9
- level of expressed mRNA in the presence/in the absence of chemical substance (yeast gene YBR020W): 1.0
- The level of expressed mRNA in the presence of chemical substance/The level of expressed mRNA in the absence of chemical substance (yeast gene YBR023C): 0.8
- The level of expressed mRNA in the presence of chemical substance/The level of expressed mRNA in the absence of chemical substance (yeast gene YBR029C): 0.9
- The level of expressed mRNA in the presence of chemical substance/The level of expressed mRNA in the absence of chemical substance (yeast gene YBR068C): 1.8
- The level of expressed mRNA in the presence of chemical substance/The level of expressed mRNA in the absence of chemical substance (yeast gene YBR183W): 1.3
- The level of expressed mRNA in the presence of chemical substance/The level of expressed mRNA in the absence of chemical substance (yeast gene YBR222C): 0.5
- The level of expressed mRNA in the presence of chemical substance/The level of expressed mRNA in the absence of chemical substance (yeast gene YBR256C): 5.6
- The level of expressed mRNA in the presence of chemical substance/The level of expressed mRNA in the absence of chemical substance (yeast gene YCL009C): 0.7
- The level of expressed mRNA in the presence of chemical substance/The level of expressed mRNA in the absence of chemical substance (yeast gene YCL064C): 0.8
- level of expressed mRNA in the presence/in the absence of chemical substance (yeast gene YCR010C): 1.2
- level of expressed mRNA in the presence/in the absence of chemical substance (yeast gene YCR034W): 0.6
- The level of expressed mRNA in the presence of chemical substance/The level of expressed mRNA in the absence of chemical substance (yeast gene YCR048W): 0.9
- The level of expressed mRNA in the presence of chemical substance/The level of expressed mRNA in the absence of chemical substance (yeast gene YCR098C): 1.1
- The level of expressed mRNA in the presence of chemical substance/The level of expressed mRNA in the absence of chemical substance (yeast gene YDR019C): 1.6
- level of expressed mRNA in the presence/in the absence of chemical substance (yeast gene YDR050C): 1.2
- level of expressed mRNA in the presence/in the absence of chemical substance (yeast gene YDR073W): 1.2
- level of expressed mRNA in the presence/in the absence of chemical substance (yeast gene YDR123C): 0.7
- level of expressed mRNA in the presence/in the absence of chemical substance (yeast gene YDR178W): 1.5
- level of expressed mRNA in the presence/in the absence of chemical substance (yeast gene YDR277C): 1.3
- level of expressed mRNA in the presence/in the absence of chemical substance (yeast gene YDR284C): 1.3
- level of expressed mRNA in the presence/in the absence of chemical substance (yeast gene YDR345C): 0.8
- The level of expressed mRNA in the presence of chemical substance/The level of expressed mRNA in the absence of chemical substance (yeast gene YDR380W): 0.6
- level of expressed mRNA in the presence/in the absence of chemical substance (yeast gene YDR400W): 0.9
- level of expressed mRNA in the presence/in the absence of chemical substance (yeast gene YDR408C): 0.9
- level of expressed mRNA in the presence/in the absence of chemical substance (yeast gene YDR483W): 0.8
- The level of expressed mRNA in the presence of chemical substance/The level of expressed mRNA in the absence of chemical substance (yeast gene YDR497C): 0.6
- The level of expressed mRNA in the presence of chemical substance/The level of expressed mRNA in the absence of chemical substance (yeast gene YDR502C): 0.8
- The level of expressed mRNA in the presence of chemical substance/The level of expressed mRNA in the absence of chemical substance (yeast gene YDR516C): 0.7
- level of expressed mRNA in the presence/in the absence of chemical substance (yeast gene YEL063C): 0.8
- level of expressed mRNA in the presence/in the absence of chemical substance (yeast gene YER015W): 1.1
- The level of expressed mRNA in the presence of chemical substance/The level of expressed mRNA in the absence of chemical substance (yeast gene YER026C): 1.1
- The level of expressed mRNA in the presence of chemical substance/The level of expressed mRNA in the absence of chemical substance (yeast gene YER053C): 1.3
- The level of expressed mRNA in the presence of chemical substance/The level of expressed mRNA in the absence of chemical substance (yeast gene YER069W): 1.3
- level of expressed mRNA in the presence/in the absence of chemical substance (yeast gene YER081W): 1.6
- The level of expressed mRNA in the presence of chemical substance/The level of expressed mRNA in the absence of chemical substance (yeast gene YER096W): 3.1
- level of expressed mRNA in the presence/in the absence of chemical substance (yeast gene YER120W): 0.9
- The level of expressed mRNA in the presence of chemical substance/The level of expressed mRNA in the absence of chemical substance (yeast gene YER178W): 0.9
- level of expressed mRNA in the presence/in the absence of chemical substance (yeast gene YFL011W): 0.8
- The level of expressed mRNA in the presence of chemical substance/The level of expressed mRNA in the absence of chemical substance (yeast gene YFL014W): 7.3
- The level of expressed mRNA in the presence of chemical substance/The level of expressed mRNA in the absence of chemical substance (yeast gene YFL030W): 0.8
- The level of expressed mRNA in the presence of chemical substance/The level of expressed mRNA in the absence of chemical substance (yeast gene YFL031W): 0.4
- The level of expressed mRNA in the presence of chemical substance/The level of expressed mRNA in the absence of chemical substance (yeast gene YFL056C): 7.8
- The level of expressed mRNA in the presence of chemical substance/The level of expressed mRNA in the absence of chemical substance (yeast gene YFL057C): 23.4
- The level of expressed mRNA in the presence of chemical substance/The level of expressed mRNA in the absence of chemical substance (yeast gene YFR047C): 1.9
- level of expressed mRNA in the presence/in the absence of chemical substance (yeast gene YGL012W): 0.8
- The level of expressed mRNA in the presence of chemical substance/The level of expressed mRNA in the absence of chemical substance (yeast gene YGL022W): 0.5
- level of expressed mRNA in the presence/in the absence of chemical substance (yeast gene YGL115W): 1.2
- level of expressed mRNA in the presence/in the absence of chemical substance (yeast gene YGL205W): 1.0
- The level of expressed mRNA in the presence of chemical substance/The level of expressed mRNA in the absence of chemical substance (yeast gene YGL209W): 1.6
- The level of expressed mRNA in the presence of chemical substance/The level of expressed mRNA in the absence of chemical substance (yeast gene YGL248W): 1.3
- The level of expressed mRNA in the presence of chemical substance/The level of expressed mRNA in the absence of chemical substance (yeast gene YGR037C): 1.5
- The level of expressed mRNA in the presence of chemical substance/The level of expressed mRNA in the absence of chemical substance (yeast gene YGR055W): 1.2
- level of expressed mRNA in the presence/in the absence of chemical substance (yeast gene YGR096W): 1.2
- level of expressed mRNA in the presence/in the absence of chemical substance (yeast gene YGR191W): 0.7
- The level of expressed mRNA in the presence of chemical substance/The level of expressed mRNA in the absence of chemical substance (yeast gene YGR194C): 1.0
- level of expressed mRNA in the presence/in the absence of chemical substance (yeast gene YGR204W): 0.5
- The level of expressed mRNA in the presence of chemical substance/The level of expressed mRNA in the absence of chemical substance (yeast gene YGR256W): 1.1
- The level of expressed mRNA in the presence of chemical substance/The level of expressed mRNA in the absence of chemical substance (yeast gene YGR282C): 1.0
- level of expressed mRNA in the presence/in the absence of chemical substance (yeast gene YGR288W): 1.1
- level of expressed mRNA in the presence/in the absence of chemical substance (yeast gene YHR025W): 0.6
- The level of expressed mRNA in the presence of chemical substance/The level of expressed mRNA in the absence of chemical substance (yeast gene YHR111W): 1.7
- level of expressed mRNA in the presence/in the absence of chemical substance (yeast gene YHR123W): 0.8
- The level of expressed mRNA in the presence of chemical substance/The level of expressed mRNA in the absence of chemical substance (yeast gene YHR137W): 0.8
- The level of expressed mRNA in the presence of chemical substance/The level of expressed mRNA in the absence of chemical substance (yeast gene YHR174W): 0.6
- The level of expressed mRNA in the presence of chemical substance/The level of expressed mRNA in the absence of chemical substance (yeast gene YHR176W): 1.3
- level of expressed mRNA in the presence/in the absence of chemical substance (yeast gene YHR210C): 1.0
- level of expressed mRNA in the presence/in the absence of chemical substance (yeast gene YIL006W): 1.0
- The level of expressed mRNA in the presence of chemical substance/The level of expressed mRNA in the absence of chemical substance (yeast gene YIL045W): 1.6
- The level of expressed mRNA in the presence of chemical substance/The level of expressed mRNA in the absence of chemical substance (yeast gene YIL107C): 1.6
- The level of expressed mRNA in the presence of chemical substance/The level of expressed mRNA in the absence of chemical substance (yeast gene YIL154C): 0.9
- The level of expressed mRNA in the presence of chemical substance/The level of expressed mRNA in the absence of chemical substance (yeast gene YIL155C): 1.3
- The level of expressed mRNA in the presence of chemical substance/The level of expressed mRNA in the absence of chemical substance (yeast gene YIL167W): 1.4
- The level of expressed mRNA in the presence of chemical substance/The level of expressed mRNA in the absence of chemical substance (yeast gene YIR034C): 1.2
- The level of expressed mRNA in the presence of chemical substance/The level of expressed mRNA in the absence of chemical substance (yeast gene YIR036C): 1.2
- The level of expressed mRNA in the presence of chemical substance/The level of expressed mRNA in the absence of chemical substance (yeast gene YJL031C): 3.0
- The level of expressed mRNA in the presence of chemical substance/The level of expressed mRNA in the absence of chemical substance (yeast gene YJL068C): 1.5
- The level of expressed mRNA in the presence of chemical substance/The level of expressed mRNA in the absence of chemical substance (yeast gene YJL088W): 2.0
- The level of expressed mRNA in the presence of chemical substance/The level of expressed mRNA in the absence of chemical substance (yeast gene YJL099W): 1.8
- level of expressed mRNA in the presence/in the absence of chemical substance (yeast gene YJL121C): 0.9
- level of expressed mRNA in the presence/in the absence of chemical substance (yeast gene YJL167W): 0.9
- The level of expressed mRNA in the presence of chemical substance/The level of expressed mRNA in the absence of chemical substance (yeast gene YJL172W): 0.9
- level of expressed mRNA in the presence/in the absence of chemical substance (yeast gene YJL216C): 1.1
- The level of expressed mRNA in the presence of chemical substance/The level of expressed mRNA in the absence of chemical substance (yeast gene YJL219W): 1.1
- level of expressed mRNA in the presence/in the absence of chemical substance (yeast gene YJR077C): 0.7
- The level of expressed mRNA in the presence of chemical substance/The level of expressed mRNA in the absence of chemical substance (yeast gene YJR137C): 1.2
- level of expressed mRNA in the presence/in the absence of chemical substance (yeast gene YJR143C): 0.6
- The level of expressed mRNA in the presence of chemical substance/The level of expressed mRNA in the absence of chemical substance (yeast gene YJR148W): 1.3
- The level of expressed mRNA in the presence of chemical substance/The level of expressed mRNA in the absence of chemical substance (yeast gene YJR155W): 9.4
- The level of expressed mRNA in the presence of chemical substance/The level of expressed mRNA in the absence of chemical substance (yeast gene YKL035W): 0.6
